# Literature values as cited in US10045993B2, “Pharmaceutical preparation containing entecavir as active ingredient, and preparation method therefor” (CTC BIO, INC., priority 2014, dated 2018).
# Conditions: pH 7.9, 25° C. (room temperature)
structure (smiles),measurement,value
"C=C1[C@H](CO)[C@@H](O)C[C@@H]1n1cnc2c(=O)[nH]c(N)nc21 [Entecavir, [1-S-(1α,3α,4β)]-2-amino-1,9-dihydro-9-[4-hydroxy-3-(hydroxymethyl)-2-methylenecyclopentyl]-6H-purin-6-one]",moisture solubility,2.4 mg/mL
